# Results published in publication PMC9026109, “Enhancing the Anticancer Potential of Targeting Tumor-Associated Metalloenzymes via VEGFR Inhibition by New Triazolo[4,3-a]pyrimidinone Acyclo C-Nucleosides Multitarget Agents” (Molecules, 2022).
# Where “and” joins values, the source holds several entries; their conditions need not be identical. Equal entries are not always repeated. Where two headings read alike, the source gives them in different places.
# Experiments:
# [1] = test system: Caco-2; assay: MTT anticancer activity, Caco-2; assay type: cell-based, human; conditions: for IC50: Homo sapiens, Caco-2, 72 h, MTT, mean ± SEM
# Source text: (§1) All derivatives were subjected to preliminary cytotoxicity screening on normal human lung fibroblasts (Wi-38) for selectivity assessment, followed by anticancer evaluation against MDA-MB231, Caco-2, and HepG-2 cells compared to the reference multitarget chemotherapeutic agent doxorubicin (Dox) by MTT assay. It is worth mentioning that previous studies reported that Dox inhibits the VEGF pathway which is the main anticancer target of the current study via various mechanisms.
# (§2) The compounds’ cytotoxicity on normal and cancer cells was assayed by MTT as reported and detailed in the Supplementary Materials. […]
# (§3) 2.1. Cytotoxicity screening on normal human lung fibroblasts (Wi-38)
# (§4) The normal human lung fibroblast Wi-38 cell line was used to detect cytotoxicity of the studied compounds. Wi-38 cell line was cultured in DMEM medium-contained 10 % fetal bovine serum (FBS), seeded as 5x10^3 cells per well in 96-well cell culture plate, and incubated at 37 °C in 5 % CO2 incubator. After 24 h for cell attachment, serial concentrations (25-800 nM) of the synthetic compounds and currently used chemotherapy (doxorubicin) were incubated with Wi-38 cells for 72 h. Cell viability was assayed by the MTT method. Twenty microliters of 5 mg/ml MTT (Sigma, USA) were added to each well and the plate was incubated at 37 °C for 3 h. Then MTT solution was removed, 100 µl DMSO was added and the absorbance of each well was measured with a microplate reader (BMG LabTech, Germany) at 570 nm. Plot of Wi-38 cell […]
# (§5) compounds (8 and 9) and the reference chemotherapy (Dox) is illustrated in figure 39-A. The effective […]
# (§6) was estimated by the Graphpad Instat software. Additionally, morphology of Wi-38 before and after […]
# (§7) microscope with a digital camera (Olympus, Japan).
# (§8) 2.2. Determination of the anticancer activity
# (§9) The anticancer effect of the above-mentioned compounds, in comparison with doxorubicin (Dox), was assayed using three human cancer cell lines. Colon cancer cell line (Caco-2) was cultured in DMEM (Lonza, USA) contained with 10 % FBS while liver cancer cell line (HepG-2) and triple-negative breast cancer cell line (MDA- MB 231) were cultured in RPMI-1640 (Lonza, U SA) supplemented with 10 % FBS. […] After 24h, serial concentrations (0.2-125 nM) of the tested compounds were incubated with three cancer cell lines for 72 h at 37 °C in a 5 % CO2 incubator. MTT method was done as described above. Plots of cancer cells viability (%) and growth inhibition (%) of the studied […]
# (§10) illustrated in figure 39. […]
# (§11) The half-maximal inhibitory concentration (IC50) values were calculated using the Graphpad Instat […]
# (§12) safest anticancer compounds were investigated using phase-contrast inverted microscope with a digital […]
# (§13) ratio of IC50 value of normal cells to IC50 value of each studied cancer cell lines.
# (§14) Figure S40. Plot of (A) Wi-38 cell viability (%) and (B-D) growth inhibition (%) of cancer cell lines with […]
# [2] = test system: HepG-2; assay: MTT anticancer activity, HepG-2; assay type: cell-based, human; conditions: for IC50: Homo sapiens, HepG2, HepG-2, 72 h, MTT, mean ± SEM; for SI: ratio IC50 on normal cells (Wi-38) / IC50 on HepG-2
# Source text: as §1, §2, §3, §4, §5, §6, §7, §8
# The anticancer effect of the above-mentioned compounds, in comparison with doxorubicin (Dox), was assayed using three human cancer cell lines. Colon cancer cell line (Caco-2) was cultured in DMEM (Lonza, USA) contained with 10 % FBS while liver cancer cell line (HepG-2) and triple-negative breast cancer cell line (MDA- MB 231) were cultured in RPMI-1640 (Lonza, U SA) supplemented with 10 % FBS. […]
# compounds were incubated with three cancer cell lines for 72 h at 37 °C in a 5 % CO2 incubator. MTT method was done as described above. Plots of cancer cells viability (%) and growth inhibition (%) of the studied […]
# as §10, §11, §12, §13, §14
# [3] = test system: MDA-MB 231; assay: MTT anticancer activity, MDA-MB 231; assay type: cell-based, human; conditions: for IC50: Homo sapiens, MDA-MB 231, 72 h, MTT, mean ± SEM; for SI: ratio IC50 on normal cells (Wi-38) / IC50 on MDA-MB 231
# Source text: as §1, §2, §3, §4, §5, §6, §7, §8, §9, §10, §11, §12, §13, §14
# [4] = test system: normal human lung fibroblasts (Wi-38); assay: MTT cytotoxicity screening on normal human lung fibroblasts (Wi-38); assay type: cell-based; conditions: for IC50: Homo sapiens; for IC50 / EC100: Wi-38, 72 h, MTT, mean ± SEM; for EC100: concentration at 100% cell viability
# Source text: as §1, §2, §3, §4, §5, §6
# microscope with a digital camera (Olympus, Japan). […]
# [5] = biological target: T1, MMP-2 (Homo sapiens, UniProt P08253); assay: MMP-2 inhibitor screening kit (colorimetric); assay type: biochemical; conditions: in vitro MMP-2
# T1 construct: read from the 'ab' catalogue number) ab139446
# Description: VEGFR-2 inhibition was detected by VEGFR-2 (KDR) Kinase Assay Kit-BPS Bioscience Corporation catalog # 40325 [107]. MMP-2 inhibitory activities were evaluated utilizing MMP-2 inhibitor screening kit (Colorimetric) catalog # ab139446 [108]. CA II inhibition assay was performed as reported. The protocols are detailed in the Supplementary Materials.
# 2.4. MMP-2 inhibitory activity assay […]
# inhibitor screening kit (Colorimetric) catalog # ab139446 following the manufacturer’s instructions. The assay uses a thiopeptide as a chromogenic substrate. The MMP cleavage site peptide bond is replaced by a thioester bond in the thiopeptide. Hydrolysis of this bond by MMP-2 produces a sulfhydryl group, which reacts with Ellman’s reagent to form 2-nitr o-5-thiobenzoic acid that can be detected by its absorbance at 412 nm. The pr ocedure of MMP -2 inhibiti on assay is as foll owing
# - Add test compounds and diluted enzyme solution to the microplate wells.
# - Simultaneously establish the following control wells.
# - Vehicle control contains MMP enzyme and vehicle used in delivering test compound (DMSO, concentration […]
# - bring the total volume of all controls to 50 µL. Pre-incubate the plate for 10 min. at assay temperature to 37°C.
# - Run the enzymatic reaction. […]
# inhibited), which were calculated from dose-response curve obtained using eight tested concentrations of the inhibitor and carried out in duplicate. […]
# [6] = ratio IC50 on normal cells (Wi-38) / IC50 on Caco-2
# T1 sequence (P08253 110-446 limits assumed): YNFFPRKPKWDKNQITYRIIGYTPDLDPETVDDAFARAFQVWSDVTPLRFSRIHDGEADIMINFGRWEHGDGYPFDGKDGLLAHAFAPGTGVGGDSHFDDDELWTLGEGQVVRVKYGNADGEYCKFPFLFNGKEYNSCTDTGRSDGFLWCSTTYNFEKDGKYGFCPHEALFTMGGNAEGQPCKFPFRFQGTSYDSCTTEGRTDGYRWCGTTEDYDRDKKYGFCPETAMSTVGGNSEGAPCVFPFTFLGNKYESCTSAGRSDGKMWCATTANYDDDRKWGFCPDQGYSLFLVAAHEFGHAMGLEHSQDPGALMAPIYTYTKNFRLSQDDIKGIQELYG
SMILES,IC50 [1],"SI [1, 6]",melting point,IC50 [2],SI [2],IC50 [3],SI [3],IC50 [4],EC100 [4],SI [1],EC100 ([4]; listed as Dox),"morphological alteration of treated cells ([4]; Wi-38 at 30 nM, phase-contrast microscopy)",IC50 [5]
"Cc1cc(=O)[nH]c(NN=C[C@H](O)[C@@H](O)[C@H](O)CO)n1 [Compound 2, D-Xylose-(6-methyl-4-oxo-2-pyrimidinyl)hydrazone]",128 ± 1.48 nM,0.73,215 to 216 °C,3.55 ± 0.0355 µM,0.02,100 ± 2.99 nM,0.93,92.86 ± 0.35 nM,46.35 ± 1.35 nM,–,–,–,–
"Cc1cc(=O)[nH]c(NN=C[C@H](O)[C@@H](O)[C@H](O)[C@H](O)CO)n1 [Compound 3, D-Glucose-(6-methyl-4-oxo-2-pyrimidinyl)hydrazone]",96.49 ± 0.09 nM,1.83,240 to 242 °C,3.49 ± 0.182 µM,0.05,75.8 ± 1.25 nM,2.33,176 ± 4.14 nM,84.54 ± 1.00 nM,–,–,–,–
"Cc1cc(=O)[nH]c(NN=C[C@@H](O)[C@@H](O)[C@H](O)[C@H](O)CO)n1 [Compound 4, D-Mannose-(6-methyl-4-oxo-2-pyrimidinyl)hydrazone]",108.1 ± 0.62 nM,1.19,220 to 222 °C,4.94 ± 0.101 µM,0.03,93.7 ± 2.69 nM,1.37,128 ± 2.96 nM,64.61 ± 0.68 nM,–,–,–,–
"Cc1cc(=O)[nH]c(NN=C[C@H](O)[C@@H](O)[C@@H](O)[C@H](O)CO)n1 [Compound 5, D-Galactose-(6-methyl-4-oxo-2-pyrimidinyl)hydrazone]",111 ± 2.94 nM,0.92,213 to 214 °C,3.82 ± 0.126 µM,0.03,83.3 ± 3.06 nM,1.23,102 ± 1.25 nM,48.16 ± 1.66 nM,–,–,–,–
"CC(=O)OCC(OC(C)=O)C(OC(C)=O)C(OC(C)=O)C1N(C(C)=O)N(C(C)=O)c2nc(C)cc(=O)n21 [Compound 6, N^1,N^2-Diacetyl-3-(1,2,3,4-tetra-O-acetyl-D-xylo-tetritol-1-yl)-7-methyl-5-oxo-1,2,4-triazolo[4,3-a]pyrimidine]",54.06 ± 0.47 nM,10.86,112 to 114 °C,4.628 ± 0.033 µM,0.13,46.3 ± 3.32 nM,12.69,587.1 ± 4.48 nM,353.7 ± 9.54 nM,–,–,–,–
"CC(=O)OCC(OC(C)=O)C(OC(C)=O)C(OC(C)=O)C(OC(C)=O)C1N(C(C)=O)N(C(C)=O)c2nc(C)cc(=O)n21 [Compound 7, N^1,N^2-Diacetyl-3-(1,2,3,4,5-penta-O-acetyl-D-galacto-pentitol-1-yl)-7-methyl-5-oxo-1,2,4-triazolo[4,3-a]pyrimidine]",47.44 ± 0.38 nM,18.39,97 to 100 °C,3.73 ± 0.252 µM,0.23,39.99 ± 0.04 nM,21.82,872 ± 16.3 nM,664.3 nM and 664.3 ± 26.60 nM,–,–,–,–
"CC(=O)OC[C@@H](OC(C)=O)[C@@H](OC(C)=O)[C@H](OC(C)=O)[C@H](OC(C)=O)[C@@H]1N(C(C)=O)N(C(C)=O)c2nc(C)cc(=O)n21 [Compound 9, N^1,N^2-Diacetyl-3-(1,2,3,4,5-penta-O-acetyl-D-manno-pentitol-1-yl)-5-methyl-7-oxo-1,2,4-triazolo[4,3-a]pyrimidine]",–,–,100 to 102 °C,–,–,–,–,–,–,–,–,–,–
"COc1cccc2c1C(=O)c1c(O)c3c(c(O)c1C2=O)C[C@@](O)(C(=O)CO)C[C@@H]3O[C@H]1C[C@H](N)[C@H](O)[C@H](C)O1 [Doxorubicin, doxorubicin, reference compound]",48.3 ± 30 nM,–,–,0.0225 ± 0.01 µM,1.33,10.6 ± 0.1 nM,2.83,30 ± 1 nM,11.50 ± 0.50 nM,0.62,11.5 nM,morphological damage,–
"COc1ccc(S(=O)(=O)N(CC(=O)NO)CC(C)C)cc1 [NNGH, N-Isobutyl-N-(4-methoxyphenylsulfonyl)glycyl hydroxamic acid]",–,–,–,–,–,–,–,–,–,–,–,–,298 ± 20.2 nM
